Among the data in BindingDB's records for doi:10.1111/cbdd.12587 (Jiangnan University, 2015) are IC50 values, retold here.

SMILES strings stand for the structures. pIC50: −log10 of the molar value.

This assay addresses T1, Tyrosine-protein phosphatase non-receptor type 1 (Homo sapiens, UniProt P18031).
T1 sequence (P18031 whole entry): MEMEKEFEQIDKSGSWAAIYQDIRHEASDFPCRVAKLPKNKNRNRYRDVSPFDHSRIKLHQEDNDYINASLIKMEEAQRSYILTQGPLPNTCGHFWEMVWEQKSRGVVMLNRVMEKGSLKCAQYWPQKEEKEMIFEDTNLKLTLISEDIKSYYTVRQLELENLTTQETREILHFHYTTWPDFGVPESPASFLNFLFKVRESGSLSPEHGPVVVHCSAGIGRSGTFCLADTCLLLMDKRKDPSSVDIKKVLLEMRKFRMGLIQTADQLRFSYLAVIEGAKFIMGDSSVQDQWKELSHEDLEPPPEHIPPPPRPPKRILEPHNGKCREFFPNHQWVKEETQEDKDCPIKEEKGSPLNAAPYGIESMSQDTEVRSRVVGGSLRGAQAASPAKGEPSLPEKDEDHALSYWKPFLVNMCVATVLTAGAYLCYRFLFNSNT
The assay is described as follows: Colorimetric Assay. The conditions noted are these: pH 6.5. On the procedure:
Briefly, the tested compounds were solubilized in DMSO and serially diluted into concentrations for the inhibitory test. The assays were carried out in a final volume of 100 µL containing 50 mmol/L MOPS, pH 6.5, 2 mmol/L pNPP, 21 nmol/L GST-PTP1B or GST-TCPTP, and 2% DMSO, and the catalysis of pNPP was continuously monitored on a SpectraMax 340 microplate reader at 405 nm for 3 min at 30 °C
Broadly, the pIC50 is the negative decadic logarithm of the IC50, by convention in mol/L. The low end stands for a high IC50, the high end for a low IC50. For the compound `O=C(c1ccc(-c2ccc(C(=O)N3CCC4(CC3)CC(c3ccccc3F)=NO4)cc2)cc1)N1CCC2(CC1)CC(c1ccccc1F)=NO2` [Biphenyl-4,4'-diylbis((3-(2-fluorophenyl)-1-oxa-2,8-diazaspiro[4.5]dec-2-en-8-yl)methanone) (6g)], the pIC50 was 5.30.
For the compound `O=C(c1ccc(-c2ccc(C(=O)N3CCC4(CC3)CC(c3cccc(F)c3)=NO4)cc2)cc1)N1CCC2(CC1)CC(c1cccc(F)c1)=NO2` [Biphenyl-4,4'-diylbis((3-(3-fluorophenyl)-1-oxa-2,8-diazaspiro[4.5]dec-2-en-8-yl)methanone) (6h)], the pIC50 was 5.27. The pIC50 values of the last two compounds are within 0.2 log units of each other.
Compound `O=C(c1ccc(-c2ccc(C(=O)N3CCC4(CC3)CC(c3ccccc3)=NO4)cc2)cc1)N1CCC2(CC1)CC(c1ccccc1)=NO2` [Biphenyl-4,4'-diylbis((3-phenyl-1-oxa-2,8-diazaspiro[4.5]dec-2-en-8-yl)methanone) (6f)] gave a pIC50 of 5.54.
